US12024510B2, “Pyrazolopyridine-diamides, their use as insecticide and processes for preparing the same” (PI INDUSTRIES LTD., priority 2017, dated 2024)

Legend:
Format in all cases: in vivo
[1] = test system: Helicoverpa armigera; assay: Helicoverpa armigera diet incorporation method; settings: third instar larvae, dead and moribund combined, 96 h after release
In short: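 Third-instar larvae, starved, were placed singly on diet pieces containing test dispersion (bead-milled in surfactant, particles under 2 μm, 500 ppm stock then diluted). Trays kept at 25° C. and 70% RH; mortality counted at 96 h, moribund larvae counted with dead.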

[2] = test system: Spodoptera litura; assay: Spodoptera litura diet incorporation method; settings: third instar larvae, dead and moribund combined, 96 h after release
In short: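 Compound milled to <2 μm average particle size in surfactant, dispersed in water (500 ppm stock dispersion), then mixed into semi-synthetic diet at ~50° C. One starved third-instar larva per diet cell, 25° C, 70% RH; percent mortality (dead plus moribund) scored at 96 h.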

[3] = test system: Plutella xylostella; assay: whole plant or invertebrate; settings: foliar, cabbage leaf dip, second instar larvae, dead and moribund combined, 72 h after release
In short: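 Leaf-dip bioassay: second-instar larvae, singly, fed on cabbage leaves dipped 10 s in test dispersion (bead-milled, diluted with 0.01% Triton-X to test concentration) and dried 20 min. Held at 25 °C, 70% RH; % mortality counts dead and moribund at 72 h.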

Measured: mortality at 300 ppm

CC(C)NC(=O)c1c(NC(=O)c2cc(Br)nn2-c2ncccc2Cl)c(Cl)cc2ccnn12 [Compound 138, 6-(3-bromo-1-(3-chloropyridin-2-yl)-1H-pyrazole-5-carboxamido)-5-chloro-N-isopropylpyrazolo[1,5-a]pyridine-7-carboxamide]
> 70%: all assays above

Cc1cc2ccnn2c(C(=O)NCC2CC2)c1NC(=O)c1cc(C(F)(F)F)nn1-c1ncccc1Cl [Compound 62, 6-(1-(3-chloropyridin-2-yl)-3-(trifluoromethyl)-1H-pyrazole-5-carboxamido)-N-(cyclopropylmethyl)-5-methylpyrazolo[1,5-a]pyridine-7-carboxamide]
> 70%: all assays above

Cc1cc2ccnn2c(C(=O)NC(C)(C)C)c1NC(=O)c1cc(Cn2nnc(C(F)(F)F)n2)nn1-c1ncccc1Cl [Compound 170, N-(tert-butyl)-6-(1-(3-chloropyridin-2-yl)-3-((5-(trifluoromethyl)-2H-tetrazol-2-yl)methyl)-1H-pyrazole-5-carboxamido)-5-methylpyrazolo[1,5-a]pyridine-7-carboxamide]
> 70%: all assays above

COc1cc(C(=O)Nc2c(C)cc3ccnn3c2C(=O)NCC#N)n(-c2ncccc2Cl)n1 [Compound 40, 6-(1-(3-chloropyridin-2-yl)-3-methoxy-1H-pyrazole-5-carboxamido)-N-(cyanomethyl)-5-methylpyrazolo[1,5-a]pyridine-7-carboxamide]
> 70%: all assays above

COc1cc(C(=O)Nc2c(C)cc3ccnn3c2C(=O)NCC2CCCC2)n(-c2ncccc2Cl)n1 [Compound 203, 6-(1-(3-chloropyridin-2-yl)-3-methoxy-1H-pyrazole-5-carboxamido)-N-(cyclopentylmethyl)-5-methylpyrazolo[1,5-a]pyridine-7-carboxamide]
> 70%: all assays above

C#CCNC(=O)c1c(NC(=O)c2cc(Br)nn2-c2ncccc2Cl)c(C)cc2ccnn12 [Compound 36, 6-(3-bromo-1-(3-chloropyridin-2-yl)-1H-pyrazole-5-carboxamido)-5-methyl-N-(prop-2-yn-1-yl)pyrazolo[1,5-a]pyridine-7-carboxamide]
> 70%: all assays above

COc1cc(C(=O)Nc2c(C)cc3ccnn3c2C(=O)NC(C)(C)CO)n(-c2ncccc2Cl)n1 [Compound 197, 6-(1-(3-chloropyridin-2-yl)-3-methoxy-1H-pyrazole-5-carboxamido)-N-(1-hydroxy-2-methylpropan-2-yl)-5-methylpyrazolo[1,5-a]pyridine-7-carboxamide]
> 70%: all assays above

CNC(=O)c1c(NC(=O)c2cc(OCC(F)(F)F)nn2-c2ncccc2Cl)c(C)cc2ccnn12 [Compound 9, 6-(1-(3-chloropyridin-2-yl)-3-(2,2,2-trifluoroethoxy)-1H-pyrazole-5-carboxamido)-N,5-dimethylpyrazolo[1,5-a]pyridine-7-carboxamide]
> 70%: all assays above

Cc1cc2ccnn2c(C(=O)NC2CC2)c1NC(=O)c1cc(Br)nn1-c1ncccc1Cl [Compound 5, 6-(3-bromo-1-(3-chloropyridin-2-yl)-1H-pyrazole-5-carboxamido)-N-cyclopropyl-5-methylpyrazolo[1,5-a]pyridine-7-carboxamide]
> 70%: all assays above

CONC(=O)c1c(NC(=O)c2cc(Br)nn2-c2ncccc2Cl)c(Br)cc2ccnn12 [Compound 87, 5-bromo-6-(3-bromo-1-(3-chloropyridin-2-yl)-1H-pyrazole-5-carboxamido)-N-methoxypyrazolo[1,5-a]pyridine-7-carboxamide]
> 70%: all assays above

CNC(=O)c1c(NC(=O)c2cc(C(F)(F)F)nn2-c2ncccc2Cl)c(Cl)cc2ccnn12 [Compound 162, 5-chloro-6-(1-(3-chloropyridin-2-yl)-3-(trifluoromethyl)-1H-pyrazole-5-carboxamido)-N-methylpyrazolo[1,5-a]pyridine-7-carboxamide]
> 70%: all assays above

COc1cc(C(=O)Nc2c(Cl)cc3ccnn3c2C(=O)NC(C)C)n(-c2ncccc2Cl)n1 [Compound 133, 5-chloro-6-(1-(3-chloropyridin-2-yl)-3-methoxy-1H-pyrazole-5-carboxamido)-N-isopropylpyrazolo[1,5-a]pyridine-7-carboxamide]
> 70%: all assays above

CSCCNC(=O)c1c(NC(=O)c2cc(Br)nn2-c2ncccc2Cl)c(Br)cc2ccnn12 [Compound 55, 5-bromo-6-(3-bromo-1-(3-chloropyridin-2-yl)-1H-pyrazole-5-carboxamido)-N-(2-(methylthio)ethyl)pyrazolo[1,5-a]pyridine-7-carboxamide]
> 70%: all assays above

C=CCNC(=O)c1c(NC(=O)c2cc(Br)nn2-c2ncccc2Cl)c(C)cc2ccnn12 [Compound 6, N-allyl-6-(3-bromo-1-(3-chloropyridin-2-yl)-1H-pyrazole-5-carboxamido)-5-methylpyrazolo[1,5-a]pyridine-7-carboxamide]
> 70%: all assays above

Cc1cc2ccnn2c(C(=O)NCC2CC2)c1NC(=O)c1cc(Br)nn1-c1ncccc1Cl [Compound 3, 6-(3-bromo-1-(3-chloropyridin-2-yl)-1H-pyrazole-5-carboxamido)-N-(cyclopropylmethyl)-5-methylpyrazolo[1,5-a]pyridine-7-carboxamide]
> 70%: all assays above

Cc1cc2ccnn2c(C(=O)NC(C)(C)C)c1NC(=O)c1cc(OCC(F)(F)F)nn1-c1ncccc1Cl [Compound 19, N-(tert-butyl)-6-(1-(3-chloropyridin-2-yl)-3-(2,2,2-trifluoroethoxy)-1H-pyrazole-5-carboxamido)-5-methylpyrazolo[1,5-a]pyridine-7-carboxamide]
> 70%: all assays above
